# The source made the active and inactive calls. The rule behind the calls is not given here.
# System: CCRIS mutagenicity, Ames/micronucleus/aberration tests
# Test: CCRIS mutagenicity studies
# [1] = Test System: AMES SALMONELLA TYPHIMURIUM, Strain/Indicator: TA98, Metabolic Activation: RAT, LIVER, S-9, AROCLOR 1254, Method: STANDARD PLATE
# [2] = Test System: AMES SALMONELLA TYPHIMURIUM, Strain/Indicator: TA98, Metabolic Activation: NONE, Method: STANDARD PLATE
# [3] = Test System: AMES SALMONELLA TYPHIMURIUM, Strain/Indicator: TA100, Metabolic Activation: NONE, Method: STANDARD PLATE
# [4] = Test System: AMES SALMONELLA TYPHIMURIUM, Strain/Indicator: TA100, Metabolic Activation: RAT, LIVER, S-9, AROCLOR 1254, Method: STANDARD PLATE
# [5] = Test System: AMES SALMONELLA TYPHIMURIUM, Strain/Indicator: TA1535, Metabolic Activation: NONE, Method: STANDARD PLATE
# [6] = Test System: AMES SALMONELLA TYPHIMURIUM, Strain/Indicator: TA1535, Metabolic Activation: RAT, LIVER, S-9, AROCLOR 1254, Method: STANDARD PLATE
# [7] = Test System: AMES SALMONELLA TYPHIMURIUM, Strain/Indicator: TA1537, Metabolic Activation: NONE, Method: STANDARD PLATE
# [8] = Test System: AMES SALMONELLA TYPHIMURIUM, Strain/Indicator: TA1537, Metabolic Activation: RAT, LIVER, S-9, AROCLOR 1254, Method: STANDARD PLATE
# [9] = Test System: AMES SALMONELLA TYPHIMURIUM, Strain/Indicator: TA98, Metabolic Activation: NONE, Method: PREINCUBATION
compound,measurement,setting,value
Cc1nc2c3c(ccc4ccc(O)cc43)ccc2n1C,mutagenic call,[1],active; positive
O=S(=O)(Oc1ccc(Cl)c(Cl)c1)c1cccc2cccnc12,mutagenic call,[2],inactive; negative
same,mutagenic call,[1],active; positive
same,mutagenic call,[3],inactive; negative
same,mutagenic call,[4],active; positive
same,mutagenic call,[5],inactive; negative
same,mutagenic call,[6],inactive; negative
same,mutagenic call,[7],inactive; negative
same,mutagenic call,[8],inactive; negative
C[C@]12CC[C@@H](OC(=O)/C=C/c3cccc(N(CCCl)CCCl)c3)C[C@@H]1CC[C@@H]1[C@@H]2CC[C@]2(C)NC(=O)CC[C@@H]12,mutagenic call,[2],inactive; negative
same,mutagenic call,[1],inactive; negative
same,mutagenic call,[3],inactive; negative
same,mutagenic call,[4],inactive; negative
same,mutagenic call,[5],active; positive
same,mutagenic call,[6],active; positive
same,mutagenic call,[7],inactive; negative
same,mutagenic call,[8],inactive; negative
Clc1cccc(-c2nc3ccccc3o2)c1,mutagenic call,[2],inactive; negative
C/C=C1/C[C@@H](C)[C@](C)(OC(C)=O)C(=O)OC/C2=C/CN(C)CC[C@@H](OC1=O)C2=O,mutagenic call,"Test System: UDS RAT HEPATOCYTES, Strain/Indicator: THY INCORP, Metabolic Activation: NONE, Method: AUTORADIOGRAPHY",active; positive
CCCOC(=O)C=Cc1ccc([N+](=O)[O-])o1,mutagenic call,[9],active; positive
C=COC(=O)C=C,mutagenic call,"Test System: AMES SALMONELLA TYPHIMURIUM, Strain/Indicator: TA102, Metabolic Activation: RAT, LIVER, S-9, PHENOBARBITAL AND 5,6-BENZOFLAVONE, Method: STANDARD PLATE",inactive; negative
same,mutagenic call,"Test System: AMES SALMONELLA TYPHIMURIUM, Strain/Indicator: TA2638, Metabolic Activation: RAT, LIVER, S-9, PHENOBARBITAL AND 5,6-BENZOFLAVONE, Method: STANDARD PLATE",inactive; negative
same,mutagenic call,"Test System: E. COLI, Strain/Indicator: WP2 (PKM101), Metabolic Activation: RAT, LIVER, S-9, PHENOBARBITAL AND 5,6-BENZOFLAVONE, Method: STANDARD PLATE",inactive; negative
same,mutagenic call,"Test System: E. COLI, Strain/Indicator: WP2 UVRA (PKM101), Metabolic Activation: RAT, LIVER, S-9, PHENOBARBITAL AND 5,6-BENZOFLAVONE, Method: STANDARD PLATE",inactive; negative
CCC(C)c1ccccc1O (configuration not stated),mutagenic call,"Test System: AMES SALMONELLA TYPHIMURIUM, Strain/Indicator: TA98, Metabolic Activation: HAMSTER, LIVER, S-9, AROCLOR 1254 (10%), Method: PREINCUBATION",inactive; negative
same,mutagenic call,[9],inactive; negative
same,mutagenic call,"Test System: AMES SALMONELLA TYPHIMURIUM, Strain/Indicator: TA98, Metabolic Activation: RAT LIVER S-9, PHENOBARBITAL AND BETA-NAPHTHOFLAVONE, Method: PREINCUBATION",inactive; negative
same,mutagenic call,"Test System: AMES SALMONELLA TYPHIMURIUM, Strain/Indicator: TA98, Metabolic Activation: RAT, LIVER, S-9, AROCLOR 1254 (10%), Method: PREINCUBATION",inactive; negative
same,mutagenic call,"Test System: AMES SALMONELLA TYPHIMURIUM, Strain/Indicator: TA100, Metabolic Activation: HAMSTER, LIVER, S-9, AROCLOR 1254 (10%), Method: PREINCUBATION",inactive; negative
same,mutagenic call,"Test System: AMES SALMONELLA TYPHIMURIUM, Strain/Indicator: TA100, Metabolic Activation: NONE, Method: PREINCUBATION",inactive; negative
same,mutagenic call,"Test System: AMES SALMONELLA TYPHIMURIUM, Strain/Indicator: TA100, Metabolic Activation: RAT LIVER S-9, PHENOBARBITAL AND BETA-NAPHTHOFLAVONE, Method: PREINCUBATION",inactive; negative
same,mutagenic call,"Test System: AMES SALMONELLA TYPHIMURIUM, Strain/Indicator: TA100, Metabolic Activation: RAT, LIVER, S-9, AROCLOR 1254 (10%), Method: PREINCUBATION",inactive; negative
same,mutagenic call,"Test System: AMES SALMONELLA TYPHIMURIUM, Strain/Indicator: TA1535, Metabolic Activation: HAMSTER, LIVER, S-9, AROCLOR 1254 (10%), Method: PREINCUBATION",inactive; negative
same,mutagenic call,"Test System: AMES SALMONELLA TYPHIMURIUM, Strain/Indicator: TA1535, Metabolic Activation: NONE, Method: PREINCUBATION",inactive; negative
same,mutagenic call,"Test System: AMES SALMONELLA TYPHIMURIUM, Strain/Indicator: TA1535, Metabolic Activation: RAT LIVER S-9, PHENOBARBITAL AND BETA-NAPHTHOFLAVONE, Method: PREINCUBATION",inactive; negative
same,mutagenic call,"Test System: AMES SALMONELLA TYPHIMURIUM, Strain/Indicator: TA1535, Metabolic Activation: RAT, LIVER, S-9, AROCLOR 1254 (10%), Method: PREINCUBATION",inactive; negative
same,mutagenic call,"Test System: AMES SALMONELLA TYPHIMURIUM, Strain/Indicator: TA1537, Metabolic Activation: HAMSTER, LIVER, S-9, AROCLOR 1254 (10%), Method: PREINCUBATION",inactive; negative
same,mutagenic call,"Test System: AMES SALMONELLA TYPHIMURIUM, Strain/Indicator: TA1537, Metabolic Activation: NONE, Method: PREINCUBATION",inactive; negative
same,mutagenic call,"Test System: AMES SALMONELLA TYPHIMURIUM, Strain/Indicator: TA1537, Metabolic Activation: RAT LIVER S-9, PHENOBARBITAL AND BETA-NAPHTHOFLAVONE, Method: PREINCUBATION",inactive; negative
same,mutagenic call,"Test System: AMES SALMONELLA TYPHIMURIUM, Strain/Indicator: TA1537, Metabolic Activation: RAT, LIVER, S-9, AROCLOR 1254 (10%), Method: PREINCUBATION",inactive; negative
same,mutagenic call,"Test System: E.COLI, Strain/Indicator: WP2UVRA/PKM101, Metabolic Activation: NONE, Method: PREINCUBATION",inactive; negative
same,mutagenic call,"Test System: E.COLI, Strain/Indicator: WP2UVRA/PKM101, Metabolic Activation: RAT LIVER S-9, PHENOBARBITAL AND BETA-NAPHTHOFLAVONE, Method: PREINCUBATION",inactive; negative

# — PubChem BioAssay AID1259407 (Chemical Carcinogenesis Research Information System (CCRIS), 2018)
